Patent publication US12036194B1, “Methods of administering solriamfetol to lactating women” (Axsome Malta Ltd., priority 2022, dated 2024)
Where a name gives a salt, the structure may show the parent alone. Read-outs that look alike come from different tables or passages of the source.

Columns and labels:
[1] = animals tested; cited from earlier work
[2] = Phase 4 open-label single-dose study: pharmacokinetics of solriamfetol in breast milk of healthy postpartum women; format: in vivo, human; conditions: for Kp / AUC(0-inf) / AUC(0-t) / Cmax / half-life / Tmax: female, human, po, 150 mg; for Kp: breast milk / plasma
Procedure: (§1) A Phase 4, open-label, single-dose study to evaluate the pharmacokinetics (PK) of solriamfetol in the breast milk and plasma of healthy postpartum women following oral administration of a 150 mg solriamfetol tablet.
(§2) The study was conducted in 6 healthy adult lactating women who were between 15 and 37 weeks postpartum and were administered a single oral dose of SUNOSI 150 mg. SUNOSI was excreted in breast milk with a milk to plasma AUC ratio of approximately 2:1. […] The average amount that would be passed to the infant was estimated to be 0.59 mg over 24 hours, which is about 4.0% of the maternal dose on a weight-adjusted basis. The data from the lactation study indicate that SUNOSI is transferred to breastmilk in nursing mothers, with the relative infant dose (RID) is approximately 4% of the maternal weight-adjusted dosage. Data to assess the effects of SUNOSI on a breastfed infant or on milk production is not provided. The developmental and health benefits of breastfeeding should be considered along with the mother's clinical need for SUNOSI and any potential adverse effects on the breastfed child from SUNOSI or from the underlying maternal condition. Breastfed infants should be monitored for adverse reactions, such as agitation, insomnia, anorexia, and reduced weight gain.
(§3) On Day −1, eligible subjects underwent the baseline procedures. On Day 1, 2 hours after a light breakfast, subjects were to receive a single dose of solriamfetol 150 mg with 240 mL of water. Subjects had to fast for approximately 4 hours after the first dose; water was allowed except for 1 hour before and 1 hour after dosing with the study drug.
(§4) Pharmacokinetic analysis of breast milk obtained from both breasts (by pumping) was evaluated prior to dose administration and at intervals up to 72 hours postdose. Blood samples were also collected for plasma solriamfetol quantitation and PK analysis predose and at timepoints up to 72 hours postdose. Solriamfetol breast milk and plasma concentrations were measured using validated bioanalytical methods. Safety was assessed throughout the study by 12-lead ECG, vital sign measurements, the Columbia-Suicide Severity Rating Scale (C-SSRS), and the incidence of adverse events (AE).
Breast milk collection: Solriamfetol concentration in breast milk and plasma was evaluated based on samples collected prior to and postdose on Days 1 to 4. Breast milk was collected from both breasts, using electronic breast pumps, during the following intervals: From −2 to 0 at predose and at 0 to 2, 2 to 4, 4 to 8, 8 to 12, 12 to 18, 18 to 24, 24 to 32, 32 to 40, 40 to 48, and 48 to 72 hours postdose on Day 1. The midpoint of each breast milk collection interval was used as the time variable.
Breast milk was collected as often as needed during the assigned intervals; however, at the end of each interval, breast milk was pumped from both breasts and collected. At the end of each collection interval, all milk expressed from both breasts during that interval was pooled. The milk was thoroughly mixed by gently inverting the collection vessel 10 times to ensure homogeneity in milk composition. The weight and volume of the collected milk during each interval was also recorded.
(§5) Serial blood samples (4 mL) were collected and dispensed into labeled K2EDTA tubes. The actual time of blood collection for all samples was recorded on the eCRF. Solriamfetol concentration in breast milk and plasma were determined using a validated bioanalytical method (LC-MS/MS) at Origin Bioanalytical Laboratory. The analytical range (lower limit of quantitation [LLOQ] to upper limit of quantitation) for plasma solriamfetol was 8.42 to 4210.00 ng/mL, and breast milk solriamfetol was 10.0 to 8000 ng/mL.
Pharmacokinetic parameters were derived with Phoenix® WinNonlin® Version 8.3 (Certara, Inc., Princeton, New Jersey, USA) and/or SAS© Version 9.4 (SAS Institute, Inc., Cary, North Carolina, USA). […]

[3] = rats; breast milk; cited from earlier work
[4] = Phase 4 open-label single-dose study: pharmacokinetics of solriamfetol in plasma of healthy postpartum women; format: in vivo, human; conditions: for AUC(0-inf) / AUC(0-t) / Cmax / Vd/F / half-life / Tmax: female, human, po, 150 mg
Procedure: as §1, §2, §3, §4
Blood samples for plasma PK evaluation were collected at the following time points: Predose, 1, 1.5, 3, 6, 8.5, 10, 13, 15, 21, 24, 28, 36, 44, and 72 hours following dosing on Day 1. General study methodology is outlined in Table 6.
as §5
Pharmacokinetic parameters were derived with Phoenix® WinNonlin® Version 8.3 (Certara, Inc., Princeton, New Jersey, USA) and/or SAS© Version 9.4 (SAS Institute, Inc., Cary, North Carolina, USA).
Pharmacokinetic concentrations and parameters were summarized using descriptive statistics, including n, arithmetic mean, SD, coefficient of variation (CV %), median, min, max, Geometric mean (Geo-mean) and the geometric coefficient of variation (Geo-CV %). For the PK parameter tmax, only n, median, minimum, and maximum was presented.

[5] = cited from earlier work
[6] = breast milk, single oral 150 mg solriamfetol tablet, N = 6, hydrochloride
[7] = breast milk, single oral 150 mg, N = 6
[8] = breast milk, single oral 150 mg, N = 6, hydrochloride
[9] = breast milk, single oral 150 mg, N = 6, listed as solriamfetol, hydrochloride
[10] = over 72 hours, single oral 150 mg
[11] = single oral 150 mg solriamfetol tablet, N = 6
[12] = single oral 150 mg solriamfetol tablet, N = 6, hydrochloride
[13] = single oral 150 mg solriamfetol tablet, N = 6, listed as solriamfetol, hydrochloride

## NC(=O)OC[C@H](N)Cc1ccccc1 [Solriamfetol, (R)-2-amino-3-phenylpropyl carbamate (APC) hydrochloride]
[1]
  absorption and oral bioavailability: rapid absorption and high oral bioavailability
  exposure (maximum serum concentration and AUC) versus dose: dose-proportional exposure
[2]; AUC in breast milk divided by AUC in plasma, single oral 150 mg, N = 6
  Milk:Plasma Ratio, Arithmetic Mean (CV %): 2.136 (35.8)
[2]; after dosing, single oral 150 mg
  time by which near complete excretion in breast milk was observed: ≤ 24 h
[2]; amount excreted in breast milk over 72 hours, single oral 150 mg, N = 6
  Amilk, Geometric Mean: 0.5651 mg
[2]; amount excreted in breast milk over 72 hours, single oral 150 mg, N = 6, hydrochloride
  Amilk, Arithmetic Mean (CV %): 0.6880 (67.9) mg
[2]; amount excreted in breast milk over 72 hours, single oral 150 mg, N = 6, listed as solriamfetol, hydrochloride
  Amilk, Arithmetic Mean (CV %): 0.6880 mg
[2]; breast milk, single oral 150 mg solriamfetol tablet, N = 6
  Lambda_z, Arithmetic Mean (CV %): 0.1446 (18.8) 1/h
[2]; [6]
  t1/2, Arithmetic Mean (CV %): 4.954 (21.4) h
  tmax, Median (min, max): 1.12 h
[2]; [7]
  Daily Infant Dose, Geometric Mean: 0.5856 mg
  Relative Infant Dose, Geometric Mean: 4.030%
[2]; [8]
  Daily Infant Dose, Arithmetic Mean (CV %): 0.6927 (63.5) mg
  Relative Infant Dose, Arithmetic Mean (CV %): 4.602 (60.6) %
[2]; [9]
  Daily Infant Dose, Arithmetic Mean (CV %): 0.6927 mg
  Relative Infant Dose, Arithmetic Mean (CV %): 4.602%
[2]; estimated, over 24 hours, single oral 150 mg
  average amount that would be passed to the infant: 0.59 mg
[2]; excreted by 8 hours
  share of the total amount excreted in breast milk over 72 hours: approximately 78%
[2]; excreted by 24 hours
  share of the total amount excreted in breast milk over 72 hours: ~98%
[2]; AUC in breast milk divided by AUC in plasma, single oral 150 mg, N = 6, read-out: Milk:Plasma Ratio, Geometric Mean
  Kp: 2.05
[2]; breast milk vs plasma, single oral 150 mg, read-out: solriamfetol exposure/concentrations (Cmax, AUCs) in breast milk relative to plasma
  Kp: ~2
[2]; breast milk, breast milk, single oral 150 mg solriamfetol tablet, N = 6, read-out: AUC0-inf, Geometric Mean
  AUC(0-inf): 12900 ng·h/mL
[2]; breast milk, breast milk, single oral 150 mg solriamfetol tablet, N = 6, read-out: AUC0-t, Arithmetic Mean (CV %)
  AUC(0-t): 13700 ng·h/mL
[2]; breast milk, breast milk, single oral 150 mg solriamfetol tablet, N = 6, read-out: AUC0-t, Geometric Mean
  AUC(0-t): 12800 ng·h/mL
[2]; breast milk, breast milk, single oral 150 mg solriamfetol tablet, N = 6, read-out: Cmax, Arithmetic Mean (CV %)
  Cmax: 2070 ng/mL
[2]; breast milk, breast milk, single oral 150 mg solriamfetol tablet, N = 6, read-out: Cmax, Geometric Mean
  Cmax: 1860 ng/mL
[2]; breast milk, breast milk, single oral 150 mg solriamfetol tablet, N = 6, read-out: t1/2, Arithmetic Mean (CV %) (converted)
  half-life: ~5 h
[2]; breast milk, breast milk, single oral 150 mg solriamfetol tablet, N = 6, read-out: t1/2, Geometric Mean (converted)
  half-life: 4.87 h
[2]; breast milk, breast milk, single oral 150 mg solriamfetol tablet, N = 6, read-out: tmax, Median (min, max)
  Tmax: ~1.1 h
[2]; breast milk, breast milk, single oral 150 mg solriamfetol tablet, healthy postpartum women N = 6, read-out: AUC0-inf, Arithmetic Mean (CV %)
  AUC(0-inf): 13800 ng·h/mL
[2]; breast milk, breast milk, single oral 150 mg, read-out: t1/2 (approximate) (converted)
  half-life: ~5 h
[2]; breast milk, breast milk, single oral 150 mg, read-out: tmax range
  Tmax: 1 to 3 h
[2]; further analysis, based on nominal infant weight of 6 kg, maternal single oral 150 mg
  daily infant dose: 0.112 mg/kg
[2]; [10]
  Arithmetic mean±SD amount excreted in breast milk: 0.6880 ± 0.4672 mg
  cumulative median amount excreted in breast milk: 0.67 mg
[3]
  solriamfetol milk concentrations versus plasma concentrations: higher than
[4]; single oral 150 mg solriamfetol tablet, N = 6, read-out: AUC0-inf, Geometric Mean
  AUC(0-inf): 6340 ng·h/mL
[4]; single oral 150 mg solriamfetol tablet, N = 6, read-out: AUC0-t, Arithmetic Mean (CV %)
  AUC(0-t): 6440 ng·h/mL
[4]; single oral 150 mg solriamfetol tablet, N = 6, read-out: AUC0-t, Geometric Mean
  AUC(0-t): 6240 ng·h/mL
[4]; single oral 150 mg solriamfetol tablet, N = 6, read-out: Cmax, Arithmetic Mean (CV %)
  Cmax: 905 ng/mL
[4]; single oral 150 mg solriamfetol tablet, N = 6, read-out: Cmax, Geometric Mean
  Cmax: 892 ng/mL
[4]; single oral 150 mg solriamfetol tablet, N = 6, read-out: Vz/F, Arithmetic Mean (CV %)
  Vd/F: 169 L
[4]; single oral 150 mg solriamfetol tablet, N = 6, read-out: Vz/F, Geometric Mean
  Vd/F: 162 L
[4]; single oral 150 mg solriamfetol tablet, N = 6, read-out: t1/2, Arithmetic Mean (CV %) (converted)
  half-life: 4.8 h
[4]; single oral 150 mg solriamfetol tablet, N = 6, read-out: t1/2, Geometric Mean (converted)
  half-life: 4.75 h
[4]; single oral 150 mg solriamfetol tablet, N = 6, read-out: tmax, Median (min, max)
  Tmax: 1.25 h
[4]; single oral 150 mg solriamfetol tablet, healthy postpartum women N = 6, read-out: AUC0-inf, Arithmetic Mean (CV %)
  AUC(0-inf): 6540 ng·h/mL
[4]; single oral 150 mg, read-out: t1/2 (approximate) (converted)
  half-life: ~5 h
[4]; single oral 150 mg, read-out: tmax range
  Tmax: 1 to 3 h
[4]; [11]
  CL/F, Geometric Mean: 23.66 L/h
  Lambda_z, Arithmetic Mean (CV %): 0.1478 (19.1) 1/h
  Lambda_z, Geometric Mean: 0.1459 h⁻¹
[4]; [12]
  CL/F, Arithmetic Mean (CV %): 24.40 (26.8) L/h
  t1/2, Arithmetic Mean (CV %): 4.804 (15.2) h
[4]; [13]
  CL/F, Arithmetic Mean (CV %): 24.40 L/h
  tmax, Median (min, max): 1 h
[5]; fed versus fasted
  PK in fed versus fasted subjects: satisfied the criteria for bioequivalence
[5]; in vivo
  systemic elimination half-life: 5.0 to 7.6 h
[5]; once daily dosing
  estimated accumulation ratio: 1.06
